Experimental data as given in ChEMBL document CHEMBL4033793, “Potent and Selective Inhibitors of Human Sirtuin 5” (J Med Chem, 2018).
Residues, ends and D or L forms follow the SMILES beside them. *: point of attachment. X16 = O=C(O)[C@H](CC(=O)*)SCc1ccc(Cl)c(Cl)c1; X17 = O=C(O)[C@@H](CC(=O)*)Sc1cc(Cl)cc(Cl)c1; X28 = O=C(O)[C@@H](CC(=O)*)Sc1ccc(Cl)c(Cl)c1; X18 = O=C(O)[C@@H](CC(=O)*)Sc1c(Cl)cccc1Cl; X55 = O=C(O)[C@@H](CC(=O)*)Sc1ccc(Cl)cc1Cl; X43 = O=C(O)[C@H](CC(=O)*)Sc1ccc(Cl)cc1Cl; X64 = O=C(O)[C@H](CC(=O)*)Sc1c(Cl)cccc1Cl; X14 = O=C(O)[C@H](CC(=O)*)SCc1ccc(Cl)cc1; X61 = O=C(O)[C@@H](CC(=O)*)Sc1cccc(Cl)c1; X68 = Cc1ccc(S[C@H](CC(=O)*)C(=O)O)cc1C; X60 = O=C(O)[C@@H](CC(=O)*)SCc1ccccc1; X21 = O=C(O)[C@@H](CC(=O)*)SC1CCCCC1; X45 = O=C(O)[C@H](CC(=O)*)SC1CCCCC1; X5 = O=C(O)C(CC(=O)*)SCCc1ccccn1; X42 = O=C(CCSc1ccc2ccccc2c1)*; Bz = O=C(c1ccccc1)*

Target: NAD-dependent protein deacylase sirtuin-5, mitochondrial (Homo sapiens, UniProt Q9NXA8)
Sequence (Q9NXA8 whole entry): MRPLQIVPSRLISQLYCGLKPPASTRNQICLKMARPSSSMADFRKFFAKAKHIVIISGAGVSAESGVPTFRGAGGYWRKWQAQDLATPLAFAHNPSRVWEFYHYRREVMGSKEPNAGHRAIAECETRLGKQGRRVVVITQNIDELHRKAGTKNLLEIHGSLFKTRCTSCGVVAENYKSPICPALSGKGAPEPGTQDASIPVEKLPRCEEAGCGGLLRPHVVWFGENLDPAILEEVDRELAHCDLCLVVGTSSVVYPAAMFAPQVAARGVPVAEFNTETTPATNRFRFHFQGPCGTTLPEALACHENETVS
Assay: Inhibition of human recombinant N-terminal Strep2-tagged SIRT5 expressed in Escherichia coli BL21 (DE3) using Abz-GVLK(glutaryl)AY(NO2)GV-NH2 as substrate in presence of NAD+ by fluorescence assay

Structure (SMILES) | IC50 [µM]
CC(C)C[C@H](NC(=O)[C@@H](NC(=O)CNC(=O)c1ccccc1)C(C)C)C(=O)N[C@@H](CCCCNC(=O)CCSc1ccc2ccccc2c1)C(=O)N[C@@H](CCC(=O)O)C(=O)N[C@@H](Cc1ccc(O)cc1)C(=O)NCC(=O)N[C@H](C(N)=O)C(C)C (Bz-GVLK(X42)EYGV-NH2) | > 40
CC(C)C[C@H](NC(=O)[C@@H](NC(=O)CNC(=O)c1ccccc1)C(C)C)C(=O)N[C@@H](CCCCNC(=O)CC(SCCc1ccccn1)C(=O)O)C(=O)N[C@@H](CCC(=O)O)C(=O)N[C@@H](Cc1ccc(O)cc1)C(=O)NCC(=O)N[C@H](C(N)=O)C(C)C (stereo partly specified) (Bz-GVLK(X5)EYGV-NH2) | 6.97
CC(C)C[C@H](NC(=O)[C@@H](NC(=O)CNC(=O)c1ccccc1)C(C)C)C(=O)N[C@@H](CCCCNC(=O)C[C@@H](Sc1c(Cl)cccc1Cl)C(=O)O)C(=O)N[C@@H](CCC(=O)O)C(=O)N[C@@H](Cc1ccc(O)cc1)C(=O)NCC(=O)N[C@H](C(N)=O)C(C)C (Bz-GVLK(X18)EYGV-NH2) | 12.5
CC(C)C[C@H](NC(=O)[C@@H](NC(=O)CNC(=O)c1ccccc1)C(C)C)C(=O)N[C@@H](CCCCNC(=O)C[C@H](Sc1ccc(Cl)cc1Cl)C(=O)O)C(=O)N[C@@H](CCC(=O)O)C(=O)N[C@@H](Cc1ccc(O)cc1)C(=O)NCC(=O)N[C@H](C(N)=O)C(C)C (Bz-GVLK(X43)EYGV-NH2) | 0.177
CC(C)C[C@H](NC(=O)[C@@H](NC(=O)CNC(=O)c1ccccc1)C(C)C)C(=O)N[C@@H](CCCCNC(=O)C[C@H](Sc1c(Cl)cccc1Cl)C(=O)O)C(=O)N[C@@H](CCC(=O)O)C(=O)N[C@@H](Cc1ccc(O)cc1)C(=O)NCC(=O)N[C@H](C(N)=O)C(C)C (Bz-GVLK(X64)EYGV-NH2) | 0.577
CC(C)C[C@H](NC(=O)[C@@H](NC(=O)CNC(=O)c1ccccc1)C(C)C)C(=O)N[C@@H](CCCCNC(=O)C[C@@H](Sc1cccc(Cl)c1)C(=O)O)C(=O)N[C@@H](CCC(=O)O)C(=O)N[C@@H](Cc1ccc(O)cc1)C(=O)NCC(=O)N[C@H](C(N)=O)C(C)C (Bz-GVLK(X61)EYGV-NH2) | 1.38
CC(C)C[C@H](NC(=O)[C@@H](NC(=O)CNC(=O)c1ccccc1)C(C)C)C(=O)N[C@@H](CCCCNC(=O)C[C@@H](SCc1ccccc1)C(=O)O)C(=O)N[C@@H](CCC(=O)O)C(=O)N[C@@H](Cc1ccc(O)cc1)C(=O)NCC(=O)N[C@H](C(N)=O)C(C)C (Bz-GVLK(X60)EYGV-NH2) | 0.644
CC(C)C[C@H](NC(=O)[C@@H](NC(=O)CNC(=O)c1ccccc1)C(C)C)C(=O)N[C@@H](CCCCNC(=O)C[C@@H](SC1CCCCC1)C(=O)O)C(=O)N[C@@H](CCC(=O)O)C(=O)N[C@@H](Cc1ccc(O)cc1)C(=O)NCC(=O)N[C@H](C(N)=O)C(C)C (Bz-GVLK(X21)EYGV-NH2) | > 14
CC(C)C[C@H](NC(=O)[C@@H](NC(=O)CNC(=O)c1ccccc1)C(C)C)C(=O)N[C@@H](CCCCNC(=O)C[C@H](SCc1ccc(Cl)c(Cl)c1)C(=O)O)C(=O)N[C@@H](CCC(=O)O)C(=O)N[C@@H](Cc1ccc(O)cc1)C(=O)NCC(=O)N[C@H](C(N)=O)C(C)C (Bz-GVLK(X16)EYGV-NH2) | 0.74
CC(C)C[C@H](NC(=O)[C@@H](NC(=O)CNC(=O)c1ccccc1)C(C)C)C(=O)N[C@@H](CCCCNC(=O)C[C@@H](Sc1ccc(Cl)c(Cl)c1)C(=O)O)C(=O)N[C@@H](CCC(=O)O)C(=O)N[C@@H](Cc1ccc(O)cc1)C(=O)NCC(=O)N[C@H](C(N)=O)C(C)C (Bz-GVLK(X28)EYGV-NH2) | 1.61
CC(C)C[C@H](NC(=O)[C@@H](NC(=O)CNC(=O)c1ccccc1)C(C)C)C(=O)N[C@@H](CCCCNC(=O)C[C@@H](Sc1ccc(Cl)cc1Cl)C(=O)O)C(=O)N[C@@H](CCC(=O)O)C(=O)N[C@@H](Cc1ccc(O)cc1)C(=O)NCC(=O)N[C@H](C(N)=O)C(C)C (Bz-GVLK(X55)EYGV-NH2) | 2.01
CC(=O)N[C@@H](CCCCNC(=O)C[C@H](Sc1ccc2ccccc2c1)C(=O)O)C(N)=O | 7.4
CC(C)C[C@H](NC(=O)[C@@H](NC(=O)CNC(=O)c1ccccc1)C(C)C)C(=O)N[C@@H](CCCCNC(=O)C[C@H](SCc1ccc(Cl)cc1)C(=O)O)C(=O)N[C@@H](CCC(=O)O)C(=O)N[C@@H](Cc1ccc(O)cc1)C(=O)NCC(=O)N[C@H](C(N)=O)C(C)C (Bz-GVLK(X14)EYGV-NH2) | 0.893
CC(C)C[C@H](NC(=O)[C@@H](NC(=O)CNC(=O)c1ccccc1)C(C)C)C(=O)N[C@@H](CCCCNC(=O)C[C@H](SC1CCCCC1)C(=O)O)C(=O)N[C@@H](CCC(=O)O)C(=O)N[C@@H](Cc1ccc(O)cc1)C(=O)NCC(=O)N[C@H](C(N)=O)C(C)C (Bz-GVLK(X45)EYGV-NH2) | > 4
Cc1ccc(S[C@H](CC(=O)NCCCC[C@H](NC(=O)[C@H](CC(C)C)NC(=O)[C@@H](NC(=O)CNC(=O)c2ccccc2)C(C)C)C(=O)N[C@@H](CCC(=O)O)C(=O)N[C@@H](Cc2ccc(O)cc2)C(=O)NCC(=O)N[C@H](C(N)=O)C(C)C)C(=O)O)cc1C (Bz-GVLK(X68)EYGV-NH2) | 1.26
CC(C)C[C@H](NC(=O)[C@@H](NC(=O)CNC(=O)c1ccccc1)C(C)C)C(=O)N[C@@H](CCCCNC(=O)C[C@@H](Sc1cc(Cl)cc(Cl)c1)C(=O)O)C(=O)N[C@@H](CCC(=O)O)C(=O)N[C@@H](Cc1ccc(O)cc1)C(=O)NCC(=O)N[C@H](C(N)=O)C(C)C (Bz-GVLK(X17)EYGV-NH2) | 0.647
